Source: patent US8193198B2, “Uracil compounds and a herbicide comprising the same” (Korea Research Institute of Chemical Technology, priority 2008, dated 2012)

How the values were obtained:
Type in all cases: in vivo
Cocklebur = assay: Foliar treatment herbicidal activity test; settings: for Herbicidal activity, Cocklebur: foliar treatment, 8 g a.i./ha, 2 weeks
Protocol: (§1) A compound fertilizer for horticulture (N:P:K=11:10:11) was mixed with sterilized sandy soil (pH 6.1, organic substance 1.0%, clay 21%, silt 17%, sand 52%), 1 g per each pot (350 cm^2). The soil was filled in a square plastic pot, and corn, Poaceae plants including Panicum dichotomiflorum and Digitaria ciliaris, broadleaf plants including Solanum nigrum, Aeschynomene indica, Abutilon theophrasti and cocklebur, or convolvulus rhizome were sown and covered with soil. Soil treatment was carried out by spraying a test formulation 1 day after the sowing, and foliar treatment, 8 to 12 days after the sowing. The test formulation was prepared by dissolving of a test compound in a mixture of 5 wt % of acetone and 1 wt % of an emulsifier, and diluting with water to prepare a wettable powder. 2000 L of the test formulation was sprayed per hectare. The amount of the active compound was adjusted to a desired quantity.
(§2) Following the treatment, the plants were grown for 2 weeks under a greenhouse condition (25-35° C. during the day and 20-25° C. at night, 14 hour light cycle). Herbicidal activity was evaluated in comparison to a non-treated control group according to the following standard: for weeds, 0 (no herbicidal effect) to 100 (complete destruction); and for crops 0 (harmless) to […] (complete destruction).

Digitaria ciliaris [1] = assay: Foliar treatment herbicidal activity test; settings: 2 weeks; for pest or weed control at 8 g/ha / pest or weed control at 16 g/ha: Digitaria ciliaris, 336 h; for pest or weed control at 16 g/ha: Table 6 (III), 16 g a.i./ha
Protocol: as §1, §2

Echinochloa crus-galli = assay: Foliar treatment herbicidal activity test; settings: 2 weeks; for pest or weed control at 8 g/ha / pest or weed control at 16 g/ha: Echinochloa crus-galli, 336 h; for pest or weed control at 16 g/ha: Table 6 (III), 16 g a.i./ha
Protocol: as §1, §2

monocot weeds = assay: Foliar treatment herbicidal activity test (summary in text)
Protocol: as §1, §2

Solanum nigrum [2] = assay: Foliar treatment herbicidal activity test; settings: 2 weeks, scale 0 to 100 (complete destruction)
Protocol: as §1, §2

Abutilon theophrasti [3] = assay: Foliar treatment herbicidal activity test; settings: 2 weeks, scale 0 to 100 (complete destruction)
Protocol: as §1, §2

Panicum dichotomiflorum = assay: Foliar treatment herbicidal activity test; settings: 2 weeks, scale 0 to 100 (complete destruction)
Protocol: as §1, §2

Aeschynomene indica [4] = assay: Foliar treatment herbicidal activity test; settings: 2 weeks, scale 0 to 100 (complete destruction)
Protocol: as §1, §2

Sorghum bicolor [5] = assay: Foliar treatment herbicidal activity test; settings: Table 4 (I), 8 g a.i./ha, 2 weeks, scale 0 to 100 (complete destruction)
Protocol: as §1, §2

Wheat = assay: Soil treatment test, crop harm; settings: Table 7, 32 g a.i./ha, 2 weeks, crops scale 0 (harmless) to 10 (complete destruction)
Cyperus serotinus = assay: Foliar treatment herbicidal activity test; settings: Table 4 (I), 8 g a.i./ha, 2 weeks, scale 0 to 100 (complete destruction)
Corn = assay: Soil treatment test, crop harm; settings: Table 7, 32 g a.i./ha, 2 weeks, crops scale 0 (harmless) to 10 (complete destruction)
Protocol: as §1, §2

Solanum nigrum [6] = assay: Soil treatment herbicidal activity test; settings: Table 7, 32 g a.i./ha, 2 weeks, scale 0 to 100 (complete destruction)
Protocol: as §1, §2

Sorghum bicolor [7] = assay: Soil treatment herbicidal activity test; settings: Table 7, 32 g a.i./ha, 2 weeks, scale 0 to 100 (complete destruction)
Protocol: as §1, §2

Digitaria ciliaris [8] = assay: Soil treatment herbicidal activity test; settings: Table 7, 32 g a.i./ha, 2 weeks, scale 0 to 100 (complete destruction)
Protocol: as §1, §2

Abutilon theophrasti [9] = assay: Soil treatment herbicidal activity test; settings: Table 7, 32 g a.i./ha, 2 weeks, scale 0 to 100 (complete destruction)
Protocol: as §1, §2

Aeschynomene indica [10] = assay: Soil treatment herbicidal activity test; settings: Table 7, 32 g a.i./ha, 2 weeks, scale 0 to 100 (complete destruction)
Protocol: as §1, §2

[11] = Table 3, scale 0 (no herbicidal effect) to 100 (complete destruction)
[12] = Table 3, 8 g a.i./ha, scale 0 (no herbicidal effect) to 100 (complete destruction)
[13] = Table 5 (II), 8 g a.i./ha, scale 0 to 100 (complete destruction)
[14] = scale 0 to 100 (complete destruction)
[15] = Table 4 (I), scale 0 to 100 (complete destruction)
[16] = Table 4 (I), 8 g a.i./ha, scale 0 to 100 (complete destruction)

`COC(=O)C(C)NC(=O)C(C)Oc1cc(-n2c(=O)cc(C(F)(F)F)n(C)c2=O)c(F)cc1Cl` (centres unmarked) [compound 2] was tested, and the “Herbicidal activity against cocklebur (in words)” value (Cocklebur) was “imperfect herbicidal activity”, the “Herbicidal activity, Cocklebur” value (Cocklebur; [11]) was 70 and the pest or weed control at 8 g/ha (Digitaria ciliaris [1]; [12]) was 25%. The pest or weed control at 8 g/ha (Echinochloa crus-galli; [12]) was 65% and the “Herbicidal activity against monocot weeds (in words)” value (monocot weeds) was “very low herbicidal activity”.

For `CCOC(=O)CCNC(=O)C(C)Oc1cc(-n2c(=O)cc(C(F)(F)F)n(C)c2=O)c(F)cc1Cl` (centres unmarked) [Compound No. 24, 3-[{2-[2-chloro-5-(3,6-dihydro-3-methyl-2,6-dioxo-4-trifluoromethyl-1(2H)-pyrimidinyl)-4-fluorophenoxy]-1-oxopropyl}amino]propionic acid ethyl ester], the “Herbicidal activity, Solanum nigrum” value (Solanum nigrum [2]; Table 5 (II), 8 g a.i./ha) was 100, the pest or weed control at 8 g/ha (Digitaria ciliaris [1]; [13]) was 99% and the “Herbicidal activity, Abutilon theophrasti” value (Abutilon theophrasti [3]; Table 5 (II), 8 g a.i./ha) was 100. The “Herbicidal activity, Panicum dichotomiflorum” value (Panicum dichotomiflorum; Table 5 (II), 8 g a.i./ha) was 99, the “Herbicidal activity, Aeschynomene indica” value (Aeschynomene indica [4]; Table 5 (II), 8 g a.i./ha) was 100 and the pest or weed control at 8 g/ha (Echinochloa crus-galli; [13]) was 98%.

`C=CCOC(=O)CCNC(=O)C(C)Oc1cc(-n2c(=O)cc(C(F)(F)F)n(C)c2=O)c(F)cc1Cl` (centres unmarked) [Compound No. 25, 3-[{2-[2-chloro-5-(3,6-dihydro-3-methyl-2,6-dioxo-4-trifluoromethyl-1(2H)-pyrimidinyl)-4-fluorophenoxy]-1-oxopropyl}amino]propionic acid allyl ester] was tested, and the “Herbicidal activity, Solanum nigrum” value (Solanum nigrum [2]; Table 6 (III), 16 g a.i./ha) was 100, the pest or weed control at 16 g/ha (Digitaria ciliaris [1]; [14]) was 100% and the “Herbicidal activity, Abutilon theophrasti” value (Abutilon theophrasti [3]; Table 6 (III), 16 g a.i./ha) was 100. The “Herbicidal activity, Panicum dichotomiflorum” value (Panicum dichotomiflorum; Table 6 (III), 16 g a.i./ha) was 96, the “Herbicidal activity, Aeschynomene indica” value (Aeschynomene indica [4]; Table 6 (III), 16 g a.i./ha) was 100 and the pest or weed control at 16 g/ha (Echinochloa crus-galli; [14]) was 90%.

`CCCCOC(=O)CCNC(=O)C(C)Oc1cc(-n2c(=O)cc(C(F)(F)F)n(C)c2=O)c(F)cc1Cl` (centres unmarked) [Compound No. 23, 3-[{2-[2-chloro-5-(3,6-dihydro-3-methyl-2,6-dioxo-4-trifluoromethyl-1(2H)-pyrimidinyl)-4-fluorophenoxy]-1-oxopropyl}amino]propionic acid n-butyl ester] was tested, and the “Herbicidal activity, Solanum nigrum” value (Solanum nigrum [2]; Table 6 (III), 16 g a.i./ha) was 100, the pest or weed control at 16 g/ha (Digitaria ciliaris [1]; [14]) was 100% and the “Herbicidal activity, Abutilon theophrasti” value (Abutilon theophrasti [3]; Table 6 (III), 16 g a.i./ha) was 100. For the same molecule, the “Herbicidal activity, Panicum dichotomiflorum” value (Panicum dichotomiflorum; Table 6 (III), 16 g a.i./ha) was 100, the “Herbicidal activity, Aeschynomene indica” value (Aeschynomene indica [4]; Table 6 (III), 16 g a.i./ha) was 100 and the pest or weed control at 16 g/ha (Echinochloa crus-galli; [14]) was 100%.

With `COC(=O)COC(=O)CCNC(=O)C(C)Oc1cc(-n2c(=O)cc(C(F)(F)F)n(C)c2=O)c(F)cc1Cl` (centres unmarked) [Compound No. 22, 3-[{2-[2-chloro-5-(3,6-dihydro-3-methyl-2,6-dioxo-4-trifluoromethyl-1(2H)-pyrimidinyl)-4-fluorophenoxy]-1-oxopropyl}amino]propionyloxy acetic acid methyl ester] the “Herbicidal activity, Solanum nigrum” value (Solanum nigrum [2]; Table 6 (III), 16 g a.i./ha) was 100, the pest or weed control at 16 g/ha (Digitaria ciliaris [1]; [14]) was 85% and the “Herbicidal activity, Abutilon theophrasti” value (Abutilon theophrasti [3]; Table 6 (III), 16 g a.i./ha) was 100. For the same molecule, the “Herbicidal activity, Panicum dichotomiflorum” value (Panicum dichotomiflorum; Table 6 (III), 16 g a.i./ha) was 100, the “Herbicidal activity, Aeschynomene indica” value (Aeschynomene indica [4]; Table 6 (III), 16 g a.i./ha) was 100 and the pest or weed control at 16 g/ha (Echinochloa crus-galli; [14]) was 100%.

For `COC(=O)CCNC(=O)C(C)Oc1cc(-n2c(=O)cc(C(F)(F)F)n(C)c2=O)c(F)cc1Cl` (centres unmarked) [Compound No. 1, 3-[{2-[2-chloro-5-(3,6-dihydro-3-methyl-2,6-dioxo-4-trifluoromethyl-1(2H)-pyrimidinyl)-4-fluorophenoxy]-1-oxopropyl}amino]propionic acid methyl ester], the “Herbicidal activity, Solanum nigrum” value (Solanum nigrum [2]; Table 5 (II), 8 g a.i./ha) was 100, the “Herbicidal activity, Cocklebur” value (Cocklebur; [11]) was 100 and the “Herbicidal activity, Cocklebur” value (Cocklebur; [15]) was 100. The “Herbicidal activity, Sorghum bicolor” value (Sorghum bicolor [5]) was 97, the pest or weed control at 8 g/ha (Digitaria ciliaris [1]; [12]) was 100% and the “Herbicidal activity, Digitaria ciliaris” value (Digitaria ciliaris [1]; [16]) was 100. For the same molecule, the “Herbicidal activity, Digitaria ciliaris” value (Digitaria ciliaris [1]; [13]) was 100, the “Herbicidal activity, Abutilon theophrasti” value (Abutilon theophrasti [3]; Table 4 (I), 8 g a.i./ha) was 100 and the “Herbicidal activity, Abutilon theophrasti” value (Abutilon theophrasti [3]; Table 5 (II), 8 g a.i./ha) was 100. For the same molecule, the “Herbicidal activity, Panicum dichotomiflorum” value (Panicum dichotomiflorum; Table 5 (II), 8 g a.i./ha) was 100, the “Herbicidal activity, Aeschynomene indica” value (Aeschynomene indica [4]; Table 4 (I), 8 g a.i./ha) was 100 and the “Herbicidal activity, Aeschynomene indica” value (Aeschynomene indica [4]; Table 5 (II), 8 g a.i./ha) was 100. The pest or weed control at 8 g/ha (Echinochloa crus-galli; [12]) was 100%, the “Herbicidal activity, Echinochloa crus-galli” value (Echinochloa crus-galli; [13]) was 100 and the “Crop harm, Wheat” value (Wheat) was 3. The “Herbicidal activity, Cyperus serotinus” value (Cyperus serotinus) was 100, the “Crop harm, Corn” value (Corn) was 2 and the “Herbicidal activity, Solanum nigrum” value (Solanum nigrum [6]) was 100. For the same molecule, the “Herbicidal activity, Sorghum bicolor” value (Sorghum bicolor [7]) was 100, the “Herbicidal activity, Digitaria ciliaris” value (Digitaria ciliaris [8]) was 100 and the “Herbicidal activity, Abutilon theophrasti” value (Abutilon theophrasti [9]) was 100. For the same molecule, the “Herbicidal activity, Aeschynomene indica” value (Aeschynomene indica [10]) was 100.

With `COC(=O)CCNC(=O)C(C)Sc1cc(-n2c(=O)cc(C(F)(F)F)n(C)c2=O)c(F)cc1Cl` (centres unmarked) [Compound No. 36, 3-[{2-[2-chloro-5-(3,6-dihydro-3-methyl-2,6-dioxo-4-trifluoromethyl-1(2H)-pyrimidinyl)-4-fluorophenylthio]-1-oxopropyl}amino]propionic acid methyl ester] the “Herbicidal activity, Cocklebur” value (Cocklebur; [15]) was 100, the “Herbicidal activity, Sorghum bicolor” value (Sorghum bicolor [5]) was 100 and the pest or weed control at 8 g/ha (Digitaria ciliaris [1]; [16]) was 100%. The “Herbicidal activity, Abutilon theophrasti” value (Abutilon theophrasti [3]; Table 4 (I), 8 g a.i./ha) was 100, the “Herbicidal activity, Aeschynomene indica” value (Aeschynomene indica [4]; Table 4 (I), 8 g a.i./ha) was 100 and the “Crop harm, Wheat” value (Wheat) was 0. For the same molecule, the “Herbicidal activity, Cyperus serotinus” value (Cyperus serotinus) was 100, the “Crop harm, Corn” value (Corn) was 0 and the “Herbicidal activity, Solanum nigrum” value (Solanum nigrum [6]) was 100. For the same molecule, the “Herbicidal activity, Sorghum bicolor” value (Sorghum bicolor [7]) was 100, the “Herbicidal activity, Digitaria ciliaris” value (Digitaria ciliaris [8]) was 100 and the “Herbicidal activity, Abutilon theophrasti” value (Abutilon theophrasti [9]) was 100. The “Herbicidal activity, Aeschynomene indica” value (Aeschynomene indica [10]) was 100.

`COC(=O)CONC(=O)C(C)Oc1cc(-n2c(=O)cc(C(F)(F)F)n(C)c2=O)c(F)cc1Cl` (centres unmarked) [compound 3] was tested, and the “Herbicidal activity against cocklebur (in words)” value (Cocklebur) was “imperfect herbicidal activity”, the “Herbicidal activity, Cocklebur” value (Cocklebur; [11]) was 95 and the pest or weed control at 8 g/ha (Digitaria ciliaris [1]; [12]) was 10%. The pest or weed control at 8 g/ha (Echinochloa crus-galli; [12]) was 30% and the “Herbicidal activity against monocot weeds (in words)” value (monocot weeds) was “very low herbicidal activity”.

With `C#CCOC(=O)CCNC(=O)C(C)Oc1cc(-n2c(=O)cc(C(F)(F)F)n(C)c2=O)c(F)cc1Cl` (centres unmarked) [Compound No. 26, 3-[{2-[2-chloro-5-(3,6-dihydro-3-methyl-2,6-dioxo-4-trifluoromethyl-1(2H)-pyrimidinyl)-4-fluorophenoxy]-1-oxopropyl}amino]propionic acid propargyl ester] the “Herbicidal activity, Solanum nigrum” value (Solanum nigrum [2]; Table 6 (III), 16 g a.i./ha) was 100, the pest or weed control at 16 g/ha (Digitaria ciliaris [1]; [14]) was 95% and the “Herbicidal activity, Abutilon theophrasti” value (Abutilon theophrasti [3]; Table 6 (III), 16 g a.i./ha) was 100. The “Herbicidal activity, Panicum dichotomiflorum” value (Panicum dichotomiflorum; Table 6 (III), 16 g a.i./ha) was 90, the “Herbicidal activity, Aeschynomene indica” value (Aeschynomene indica [4]; Table 6 (III), 16 g a.i./ha) was 100 and the pest or weed control at 16 g/ha (Echinochloa crus-galli; [14]) was 90%.

For `COC(=O)CNC(=O)C(C)Oc1cc(-n2c(=O)cc(C(F)(F)F)n(C)c2=O)c(F)cc1Cl` (centres unmarked) [compound 1], the “Herbicidal activity against cocklebur (in words)” value (Cocklebur) was “imperfect herbicidal activity”, the “Herbicidal activity, Cocklebur” value (Cocklebur; [11]) was 98 and the pest or weed control at 8 g/ha (Digitaria ciliaris [1]; [12]) was 30%. For the same molecule, the pest or weed control at 8 g/ha (Echinochloa crus-galli; [12]) was 55% and the “Herbicidal activity against monocot weeds (in words)” value (monocot weeds) was “very low herbicidal activity”.
